Broadly, the IC50 is the concentration at which inhibition is half-maximal.

Four compounds from patent US20260365670A1, “EGFR INHIBITORS AND USES THEREOF” (DIZAL (JIANGSU) PHARMACEUTICAL CO., LTD., priority 2022, published 2026) can be followed below.

Molecules are shown by their SMILES. Like-named read-outs stand apart in the source and are kept apart here.

The target in one assay is T1, EGFR L858R/T790M (Homo sapiens, UniProt P00533, L858R/T790M).
T1 construct: purchased Carna Bio
The assay is described as follows: Inhibition of EGFR L858R/T790M biochemical enzymatic activity (HTRF). The note with it: 1 mM ATP. The gist of the method: (§1)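 Compounds at varying concentrations were tested against each EGFR form using 1 mM ATP and 1 μM TK Substrate-biotin. Reactions ran 1 h at room temperature in Mg2+/Mn2+ buffer with CHAPS, DTT and 0.5% DMSO. Time-resolved fluorescence gave IC50 by four-parameter fit.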
On the technique in general: In TR-FRET formats the signal depends on donor and acceptor labels being close together.

For another assay, the target named is T2, EGFR[T790M/C797S/L858R] (Homo sapiens, UniProt P00533, C797S/L858R/T790M).
T2 construct: purchased Carna Bio
The assay is described as follows: Inhibition of EGFR[T790M/C797S/L858R] biochemical enzymatic activity (HTRF). The note with it: 1 mM ATP. The gist of the method: as §1

A further assay concerns the target T3, EGFR (d746-750 C797S) (Homo sapiens, UniProt P00533, C797S/DEL746-750).
T3 construct: purchased signalchem
The assay is described as follows: Inhibition of EGFR (d746-750 C797S) biochemical enzymatic activity (HTRF). The note with it: 1 mM ATP. The gist of the method: as §1

A further assay has as its target T4, EGFR Exon19Del (Homo sapiens, UniProt P00533, DEL746-750).
T4 construct: purchased Carna Bio
The assay can be described thus: Inhibition of EGFR Exon19Del biochemical enzymatic activity (HTRF). The note with it: read-out: IC50 @Del19. Put shortly:
as §1

A further assay has as its target T5, EGFR wild type (Homo sapiens, UniProt P00533).
T5 construct: purchased Carna Bio
The assay is described as follows: Inhibition of EGFR wild type biochemical enzymatic activity (HTRF). The note with it: 1 mM ATP. Put shortly:
as §1

Assay [1] has as its target T6, EGFR[T790M/C797S/d746-750] (Homo sapiens, UniProt P00533, C797S/DEL746-750/T790M).
T6 construct: purchased Carna Bio
The assay is described as follows: Inhibition of EGFR[T790M/C797S/d746-750] biochemical enzymatic activity (HTRF). Put shortly: as §1

In assay [2] the test system is Ba/F3 cells expressing EGFR mutations. The assay can be described thus: Cell proliferation assay, Ba/F3 cells expressing EGFR mutations (CellTiter-Glo, 72 hours). Format: cell-based. The gist of the method: (§2)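 Luminescent viable-cell counts were taken on a day 0 plate at dosing and again at endpoint. Proliferation was calculated as (sample − G0)/(DMSO − G0). Seeding was 5000 Ba/F3 or 500 PC-9 cells per well in RPMI1640, followed by overnight attachment and serial compound dilutions. The GI50 was fitted.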
For orientation: In ATP-based viability assays light output follows the ATP content of the culture.

In another assay the target is T7, EGFR (C797S L858R) (Homo sapiens, UniProt P00533, C797S/L858R).
T7 construct: purchased signalchem
The assay is described as follows: Inhibition of EGFR (C797S L858R) biochemical enzymatic activity (HTRF). The note with it: 1 mM ATP. The gist of the method:
as §1

In the next assay the target is T8, EGFR L858R (Homo sapiens, UniProt P00533, L858R).
T8 construct: purchased Carna Bio
T8 sequence (P00533 25-1210 L858R): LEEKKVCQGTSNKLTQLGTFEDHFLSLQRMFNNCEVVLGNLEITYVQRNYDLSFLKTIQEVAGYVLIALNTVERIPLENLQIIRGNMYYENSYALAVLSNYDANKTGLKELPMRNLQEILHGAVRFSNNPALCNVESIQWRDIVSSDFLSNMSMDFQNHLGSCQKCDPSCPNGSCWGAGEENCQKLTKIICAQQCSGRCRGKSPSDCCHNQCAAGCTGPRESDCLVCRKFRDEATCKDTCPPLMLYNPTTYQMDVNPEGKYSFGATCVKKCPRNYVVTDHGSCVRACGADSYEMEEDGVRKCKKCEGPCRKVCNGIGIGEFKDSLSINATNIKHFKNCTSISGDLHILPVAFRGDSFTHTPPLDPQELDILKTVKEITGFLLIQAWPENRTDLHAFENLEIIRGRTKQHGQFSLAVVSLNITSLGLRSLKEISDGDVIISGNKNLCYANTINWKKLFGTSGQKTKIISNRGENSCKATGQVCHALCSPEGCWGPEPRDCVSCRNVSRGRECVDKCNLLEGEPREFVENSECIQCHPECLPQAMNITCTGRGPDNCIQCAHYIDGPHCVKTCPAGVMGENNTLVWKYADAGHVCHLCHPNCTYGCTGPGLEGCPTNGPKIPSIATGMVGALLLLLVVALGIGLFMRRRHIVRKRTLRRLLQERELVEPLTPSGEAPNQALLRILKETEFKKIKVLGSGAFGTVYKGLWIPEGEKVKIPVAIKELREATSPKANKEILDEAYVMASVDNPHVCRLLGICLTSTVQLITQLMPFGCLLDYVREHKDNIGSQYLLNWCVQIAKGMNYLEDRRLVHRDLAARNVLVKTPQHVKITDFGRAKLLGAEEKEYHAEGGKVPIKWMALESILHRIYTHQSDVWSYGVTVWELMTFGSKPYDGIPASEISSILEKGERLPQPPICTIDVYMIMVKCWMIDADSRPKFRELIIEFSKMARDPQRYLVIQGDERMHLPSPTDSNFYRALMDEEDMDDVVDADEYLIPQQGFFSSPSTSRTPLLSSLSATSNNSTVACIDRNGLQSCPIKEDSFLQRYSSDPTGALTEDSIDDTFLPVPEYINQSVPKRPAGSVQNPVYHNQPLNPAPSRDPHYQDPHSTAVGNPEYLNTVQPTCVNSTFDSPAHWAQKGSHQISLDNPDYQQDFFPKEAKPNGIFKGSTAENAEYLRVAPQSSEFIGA
The assay is described as follows: Inhibition of EGFR L858R biochemical enzymatic activity (HTRF). The note with it: 1 mM ATP. Put shortly: as §1

Another assay deals with T9, EGFR Exon19Del/T790M (Homo sapiens, UniProt P00533, DEL746-750/T790M).
T9 construct: purchased Carna Bio
T9 sequence (P00533 with tags, fused parts or gaps DEL746-750/T790M limits assumed): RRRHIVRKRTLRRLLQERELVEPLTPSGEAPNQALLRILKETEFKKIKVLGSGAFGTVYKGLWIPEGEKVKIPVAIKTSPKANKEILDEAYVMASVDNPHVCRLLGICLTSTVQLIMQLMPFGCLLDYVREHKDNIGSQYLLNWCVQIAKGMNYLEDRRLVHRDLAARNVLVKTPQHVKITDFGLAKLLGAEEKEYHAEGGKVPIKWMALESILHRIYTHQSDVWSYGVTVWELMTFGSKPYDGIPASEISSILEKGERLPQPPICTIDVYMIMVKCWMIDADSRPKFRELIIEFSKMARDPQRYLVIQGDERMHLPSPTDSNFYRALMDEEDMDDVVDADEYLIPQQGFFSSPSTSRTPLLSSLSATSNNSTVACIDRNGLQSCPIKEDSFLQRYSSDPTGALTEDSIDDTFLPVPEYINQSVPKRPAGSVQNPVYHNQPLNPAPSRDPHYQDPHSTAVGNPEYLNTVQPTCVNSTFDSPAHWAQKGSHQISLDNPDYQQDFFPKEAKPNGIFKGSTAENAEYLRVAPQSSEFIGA
The assay is described as follows: Inhibition of EGFR Exon19Del/T790M biochemical enzymatic activity (HTRF). The note with it: 1 mM ATP. Put shortly:
as §1

A further assay has as its system PC-9. The assay is described as follows: Cell proliferation assay, PC-9 cells (CellTiter-Glo, 72 hours). The note with it: PC9 cells. Format: cell-based. Put shortly:
as §2

[3] abbreviates: EGFR L858R/T790M, 1 h at room temperature, read-out: IC50 @L858R-T790M.
Where [4] appears, read: EGFR[T790M/C797S/L858R], 1 h at room temperature, read-out: IC50 @T790M- C797S - L858R.
Where [5] appears, read: EGFR (d746-750 C797S), 1 h at room temperature, read-out: IC50 @Del19-C797S.
Where [6] appears, read: EGFR Exon19Del, 1 mM ATP, 1 h at room temperature.
The mark [7] stands for this setting: EGFR wild type, 1 h at room temperature, read-out: IC50 @WT.
The mark [8] stands for this setting: EGFR[T790M/C797S/d746-750], 1 mM ATP, 1 h at room temperature, read-out: IC50 @T790M - C797S - Del19.
Where [9] appears, read: BaF3 cells, EGFR DEL19 - C797S, read-out: GI50 DEL19 - C797S/BaF3.
Where [10] appears, read: BaF3 cells, EGFR DEL19 - T790-C797S, read-out: GI50 DEL19 - T790-C797S/BaF3.
The mark [11] stands for this setting: BaF3 cells, EGFR L858R - C797S, read-out: GI50 L858R - C797S/BaF3.
[12] abbreviates: BaF3 cells, EGFR L858R - T790-C797S, read-out: GI50 L858R - T790-C797S/BaF3.
Where [13] appears, read: BaF3 cells, EGFR L858R - T790M, read-out: GI50 L858R - T790M/BaF3.
Where [14] appears, read: BaF3 cells, EGFR L858R, read-out: GI50 L858R/BaF3.
The mark [15] stands for this setting: EGFR DEL19 - T790M, read-out: GI50 DEL19 - T790M.
Where [16] appears, read: EGFR (C797S L858R), 1 h at room temperature, read-out: IC50 @L858-C797S.
Setting [17] is: 1 h at room temperature, read-out: IC50 @L858R.
Setting [18] is: EGFR Exon19Del/T790M, 1 h at room temperature, read-out: IC50 @Del19-T790M.
Setting [19] is: EGFR L858R-T790M, 1 h, room temperature, read-out: IC50 (nM) @L858R-T790M.
Setting [20] is: EGFR T790M-C797S-L858R, 1 h, room temperature, read-out: IC50 (nM) @T790M- C797S - L858R.
The mark [21] stands for this setting: EGFR Del19-C797S, 1 h, room temperature, read-out: IC50 (nM) @Del19-C797S.
[22] abbreviates: EGFR Del19, 1 mM ATP, 1 h, room temperature.
Where [23] appears, read: EGFR WT, 1 h, room temperature, read-out: IC50 (nM) @WT.
Where [24] appears, read: EGFR T790M-C797S-Del19, 1 mM ATP, 1 h, room temperature, read-out: IC50 (nM) @T790M - C797S - Del19.
Where [25] appears, read: BaF3 cells, EGFR DEL19-C797S, CellTiter-Glo, read-out: DEL19-C797S/BaF3 GI50.
Setting [26] is: BaF3 cells, EGFR DEL19-T790-C797S, CellTiter-Glo, read-out: DEL19-T790-C797S/BaF3 GI50.
Where [27] appears, read: BaF3 cells, EGFR L858R, CellTiter-Glo, read-out: L858R/BaF3 GI50.
The mark [28] stands for this setting: BaF3 cells, EGFR L858R-C797S, CellTiter-Glo, read-out: L858R-C797S/BaF3 GI50.
Setting [29] is: BaF3 cells, EGFR L858R-T790-C797S, CellTiter-Glo, read-out: L858R-T790-C797S/BaF3 GI50.
The mark [30] stands for this setting: BaF3 cells, EGFR L858R-T790M, CellTiter-Glo, read-out: L858R-T790M/BaF3 GI50.
Where [31] appears, read: EGFR DEL19-T790M, CellTiter-Glo, read-out: DEL19-T790M GI50.
The mark [32] stands for this setting: EGFR L858-C797S, 1 h, room temperature, read-out: IC50 (nM) @L858-C797S.
[33] abbreviates: 1 h, room temperature, read-out: IC50 (nM) @L858R.
The mark [34] stands for this setting: EGFR Del19-T790M, 1 h, room temperature, read-out: IC50 (nM) @Del19-T790M.
[35] abbreviates: CellTiter-Glo, read-out: PC9 GI50.

T1 sequence (P00533 25-1210 T790M/L858R): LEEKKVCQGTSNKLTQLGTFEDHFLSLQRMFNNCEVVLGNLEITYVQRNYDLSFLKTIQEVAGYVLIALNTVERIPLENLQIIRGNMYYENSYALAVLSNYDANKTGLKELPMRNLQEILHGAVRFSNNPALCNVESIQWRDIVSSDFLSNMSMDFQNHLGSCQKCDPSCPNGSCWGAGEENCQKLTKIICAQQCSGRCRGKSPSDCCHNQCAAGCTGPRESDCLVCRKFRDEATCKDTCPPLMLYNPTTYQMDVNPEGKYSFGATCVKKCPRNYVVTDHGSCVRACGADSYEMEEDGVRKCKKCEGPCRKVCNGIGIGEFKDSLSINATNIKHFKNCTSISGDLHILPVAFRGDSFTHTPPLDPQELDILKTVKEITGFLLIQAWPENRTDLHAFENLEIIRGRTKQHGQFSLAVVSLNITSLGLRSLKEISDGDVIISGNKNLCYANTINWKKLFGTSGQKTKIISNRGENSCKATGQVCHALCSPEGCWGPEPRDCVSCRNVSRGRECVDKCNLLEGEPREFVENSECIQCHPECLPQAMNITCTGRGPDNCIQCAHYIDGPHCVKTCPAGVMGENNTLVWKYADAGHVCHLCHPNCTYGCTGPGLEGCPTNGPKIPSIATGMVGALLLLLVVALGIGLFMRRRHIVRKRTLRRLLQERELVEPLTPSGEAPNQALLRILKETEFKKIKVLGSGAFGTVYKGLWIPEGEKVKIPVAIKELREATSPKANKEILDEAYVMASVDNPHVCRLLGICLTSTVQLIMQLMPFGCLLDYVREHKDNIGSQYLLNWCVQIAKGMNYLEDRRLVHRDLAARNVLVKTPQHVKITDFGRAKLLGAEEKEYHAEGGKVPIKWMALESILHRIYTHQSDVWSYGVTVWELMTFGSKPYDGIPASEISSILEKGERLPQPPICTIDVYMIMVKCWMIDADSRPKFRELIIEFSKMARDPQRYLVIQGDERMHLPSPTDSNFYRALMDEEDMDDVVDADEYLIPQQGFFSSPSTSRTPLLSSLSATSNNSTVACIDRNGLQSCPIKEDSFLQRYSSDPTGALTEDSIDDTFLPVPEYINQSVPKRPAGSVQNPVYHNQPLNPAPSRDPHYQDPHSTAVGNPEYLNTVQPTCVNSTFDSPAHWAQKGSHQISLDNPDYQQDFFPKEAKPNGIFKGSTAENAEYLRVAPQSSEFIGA
T6 sequence (P00533 with tags, fused parts or gaps DEL746-750/T790M/C797S limits assumed): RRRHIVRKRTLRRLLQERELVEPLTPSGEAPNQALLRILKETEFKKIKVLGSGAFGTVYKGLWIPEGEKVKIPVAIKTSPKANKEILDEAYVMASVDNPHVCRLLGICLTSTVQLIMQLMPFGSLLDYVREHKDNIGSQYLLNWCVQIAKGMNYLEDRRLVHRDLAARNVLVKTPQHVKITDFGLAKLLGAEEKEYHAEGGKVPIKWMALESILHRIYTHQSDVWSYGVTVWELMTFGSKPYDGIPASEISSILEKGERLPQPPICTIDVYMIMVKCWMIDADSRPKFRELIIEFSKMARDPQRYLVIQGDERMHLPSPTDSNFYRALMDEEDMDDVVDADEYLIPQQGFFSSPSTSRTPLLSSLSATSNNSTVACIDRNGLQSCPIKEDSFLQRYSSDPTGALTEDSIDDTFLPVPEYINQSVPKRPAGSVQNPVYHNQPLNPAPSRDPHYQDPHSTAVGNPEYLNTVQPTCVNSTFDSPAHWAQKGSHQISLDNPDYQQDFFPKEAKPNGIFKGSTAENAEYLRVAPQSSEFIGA
T5 sequence (P00533 25-1210): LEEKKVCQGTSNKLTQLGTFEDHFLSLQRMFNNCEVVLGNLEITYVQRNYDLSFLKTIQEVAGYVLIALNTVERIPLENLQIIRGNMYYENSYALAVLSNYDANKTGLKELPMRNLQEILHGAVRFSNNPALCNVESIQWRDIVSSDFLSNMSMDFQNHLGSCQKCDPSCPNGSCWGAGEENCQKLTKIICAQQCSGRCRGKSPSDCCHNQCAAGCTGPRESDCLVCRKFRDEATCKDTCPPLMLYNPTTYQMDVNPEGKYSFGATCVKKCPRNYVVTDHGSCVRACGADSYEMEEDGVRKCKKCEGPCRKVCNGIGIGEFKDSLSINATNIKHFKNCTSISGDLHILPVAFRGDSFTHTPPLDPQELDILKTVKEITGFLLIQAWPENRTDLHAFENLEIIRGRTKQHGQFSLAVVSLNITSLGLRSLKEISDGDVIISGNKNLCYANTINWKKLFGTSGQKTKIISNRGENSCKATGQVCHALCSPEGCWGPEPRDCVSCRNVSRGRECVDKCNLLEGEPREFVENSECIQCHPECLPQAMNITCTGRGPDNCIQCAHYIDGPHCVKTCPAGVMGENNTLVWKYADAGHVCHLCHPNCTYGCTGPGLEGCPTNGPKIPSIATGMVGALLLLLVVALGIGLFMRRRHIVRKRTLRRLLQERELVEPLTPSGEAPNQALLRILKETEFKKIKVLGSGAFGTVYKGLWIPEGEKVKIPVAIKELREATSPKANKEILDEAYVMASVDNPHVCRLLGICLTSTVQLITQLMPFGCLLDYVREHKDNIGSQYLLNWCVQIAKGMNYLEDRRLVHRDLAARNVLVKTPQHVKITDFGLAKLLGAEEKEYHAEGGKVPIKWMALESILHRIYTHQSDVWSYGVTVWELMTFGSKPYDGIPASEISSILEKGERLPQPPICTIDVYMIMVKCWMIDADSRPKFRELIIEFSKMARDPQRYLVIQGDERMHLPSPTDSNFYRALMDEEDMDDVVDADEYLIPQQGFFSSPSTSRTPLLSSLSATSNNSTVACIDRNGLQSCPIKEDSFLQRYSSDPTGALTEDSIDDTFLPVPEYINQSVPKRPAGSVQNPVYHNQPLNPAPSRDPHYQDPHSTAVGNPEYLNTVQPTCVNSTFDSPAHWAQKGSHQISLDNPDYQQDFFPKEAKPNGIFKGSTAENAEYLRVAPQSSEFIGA

As for `Cc1cc2cc(n1)-c1cnn(C)c1OCCN1CC3CCC(C3)(C1)n1c(nc3ccc(N4CCC(N5CCN(C)CC5)C4)cc31)NC2=O` (single isomer, unassigned) [Example B49A], the IC50 is greater than 5000 nM on EGFR L858R/T790M (setting [3]); greater than 5000 nM at EGFR[T790M/C797S/L858R] (setting [4]); greater than 5000 nM on EGFR (d746-750 C797S) (setting [5]); greater than 5000 nM on EGFR Exon19Del (setting [6]); greater than 5000 nM on EGFR wild type (setting [7]); 289 nM in assay [1] (setting [8]). Further, the values for the IC50 on EGFR (C797S L858R) (setting [16]), on EGFR L858R (setting [17]) and on EGFR Exon19Del/T790M (setting [18]) were greater than 5000 nM, greater than 5000 nM and 481 nM, respectively. Further, the GI50 came out at 325 nM in [2] (setting [9]); 606 nM in assay [2] (setting [10]); 750 nM in [2] (setting [11]); 57 nM in [2] (setting [12]); 353 nM in assay [2] (setting [13]); 931 nM in [2] (setting [14]). Besides, the results for the GI50 (in assay [2] (setting [15]); in the assay with PC-9 (read-out: GI50 PC9)) were 550 nM and 1480 nM, respectively.
Regarding `CN(C)CCN(C)c1ccc2nc3n(c2c1)C12CCC(CN(CCOc4c(cnn4C)-c4cc(cn(C)c4=O)C(=O)N3)C1)C2` (single isomer, unassigned) [Example A85A], the IC50 is greater than 5000 nM on EGFR L858R/T790M (setting [19]); greater than 5000 nM on EGFR[T790M/C797S/L858R] (setting [20]); 308 nM at EGFR (d746-750 C797S) (setting [21]); 138 nM at EGFR Exon19Del (setting [22]); greater than 5000 nM at EGFR wild type (setting [23]); 3660 nM in assay [1] (setting [24]). Further, the IC50 was 1280 nM at EGFR (C797S L858R) (setting [32]), 1590 nM at EGFR L858R (setting [33]) and greater than 5000 nM on EGFR Exon19Del/T790M (setting [34]). Besides, the GI50 in assay [2] (setting [25]) was determined as 95 nM; in assay [2] (setting [26]) it was 119 nM; in assay [2] (setting [27]), 188 nM; in assay [2] (setting [28]) it was 167 nM; in [2] (setting [29]) it was 303 nM; in assay [2] (setting [30]), 364 nM. Moreover, the GI50 in assay [2] (setting [31]) was found to be 159 nM; with PC-9 (setting [35]) it was 387 nM.
With `Cc1cc2cc(n1)-c1cnn(C)c1OCCN1CC3CCC(C3)(C1)n1c(nc3ccc(N4CC[C@@H](N(C)C)C4)cc31)NC2=O` (single isomer, unassigned) [Example B42B], the IC50 on EGFR L858R/T790M (setting [3]) came to 9.9 nM; on EGFR[T790M/C797S/L858R] (setting [4]), 5.7 nM; on EGFR (d746-750 C797S) (setting [5]) it was 7 nM; on EGFR Exon19Del (setting [6]) it was 13 nM; at EGFR wild type (setting [7]), 734 nM; in assay [1] (setting [8]), 6.3 nM. Moreover, the IC50 was 15 nM on EGFR (C797S L858R) (setting [16]), 51 nM at EGFR L858R (setting [17]) and 10 nM on EGFR Exon19Del/T790M (setting [18]). For the same compound, the GI50 came out at 2 nM in assay [2] (setting [9]); 2 nM in assay [2] (setting [10]); 3 nM in [2] (setting [11]); 2 nM in [2] (setting [12]); 2 nM in assay [2] (setting [13]); 5 nM in assay [2] (setting [14]). The figures for the GI50 (in assay [2] (setting [15]); with PC-9 (read-out: GI50 PC9)) were 2 nM and 9 nM, respectively.
In the case of `CN1CCC2(CC1)CN(c1ccc3nc4n(c3c1)C13CCC(CN(CCOc5c(cnn5C)-c5cc(cn(C)c5=O)C(=O)N4)C1)C3)C2` (single isomer, unassigned) [Example A77A], the half-inhibitory concentration (IC50) on EGFR L858R/T790M (setting [19]) is greater than 5000 nM; at EGFR[T790M/C797S/L858R] (setting [20]) it was greater than 5000 nM; on EGFR (d746-750 C797S) (setting [21]), 464 nM; on EGFR Exon19Del (setting [22]), 456 nM; on EGFR wild type (setting [23]), greater than 5000 nM; in [1] (setting [24]) it was greater than 5000 nM. The IC50 at EGFR (C797S L858R) (setting [32]) is greater than 5000 nM; at EGFR L858R (setting [33]) it was 1110 nM; at EGFR Exon19Del/T790M (setting [34]), greater than 5000 nM. Further, the GI50 was 102 nM in assay [2] (setting [25]); 326 nM in [2] (setting [26]); 320 nM in [2] (setting [27]); 125 nM in assay [2] (setting [28]); 368 nM in [2] (setting [29]); 375 nM in [2] (setting [30]). For the same compound, the results for the GI50 (in [2] (setting [31]); in the assay with PC-9 (setting [35])) were 212 nM and 341 nM, respectively.
